# Data as given in PMC9334755 (Cancer Biology & Medicine, 2021).
# Read-outs that look alike come from different tables or passages of the source.
# How the values were obtained:
# PTK6 = PTK6 (Homo sapiens, UniProt Q13882); assay: Protein kinase panel at 1 µM, PTK6; format: biochemical
# TMD8 = assay: Cell viability assay (CellTiter-Blue), TMD8; format: cell-based, human; settings: TMD8 cells; read-out: IC50 (nM), growth of TMD8
# Experimental: (§1) Cells were seeded on 96-well plates (9,000 cells/well), cultured at 37 °C in 5% CO2 overnight, and incubated with different concentrations of compounds for 3 or 7 days. Then the cells were stained with CellTiter-Blue® reagent (Promega) for 4 h at 37 °C. The fluorescence signals were detected with a FlexStation 3, and the IC50 values of each compound were determined with GraFit software (Version 6.0).
# Pfeiffer = assay: Cell viability assay (CellTiter-Blue), Pfeiffer; format: cell-based, human; settings: Pfeiffer cells; read-out: IC50 (nM), growth of Pfeiffer
# Experimental: as §1
# B cell = assay: Cell viability assay (CellTiter-Blue), human B cells; format: cell-based; settings: read-out: IC50 (nM), growth of B cell
# Experimental: as §1
# (§2) CD19^+ B (>80% purity) and CD3^+ T (>90% purity) cells were purified with human B cell enrichment cocktail and human T cell enrichment cocktail (Stem Cell Technology), respectively. Cells were seeded on 12-well plates and incubated with different concentrations of BTK inhibitors for 1 h. B cells were stimulated with 50 µg/mL anti-human IgM F(ab′)2, and T cells were stimulated with 50 µg/mL anti-CD3/CD28 beads overnight. In the washout groups, the cell medium containing the indicated inhibitors was replaced with fresh medium before stimulation. Then cells were then incubated with anti-human CD69 for 1 h and analyzed with a Guava flow cytometer.
# Caco-2 = settings: human
# Text: protein kinases Beagle dog PK
# Kinase Inhibition (%) Kinase Inhibition (%) IV Oral
# Species Plasma protein binding (%)
# Tcells, and B-cell lymphoma
# Compound Caco-2 permeability assay
# (§3) (1 picture or pasted object on this page, not shown here)
# CYP2B6 = CYP2B6 (Homo sapiens, UniProt P20813); format: in vitro ADME
# CYP2B6, sequence (P20813 whole entry): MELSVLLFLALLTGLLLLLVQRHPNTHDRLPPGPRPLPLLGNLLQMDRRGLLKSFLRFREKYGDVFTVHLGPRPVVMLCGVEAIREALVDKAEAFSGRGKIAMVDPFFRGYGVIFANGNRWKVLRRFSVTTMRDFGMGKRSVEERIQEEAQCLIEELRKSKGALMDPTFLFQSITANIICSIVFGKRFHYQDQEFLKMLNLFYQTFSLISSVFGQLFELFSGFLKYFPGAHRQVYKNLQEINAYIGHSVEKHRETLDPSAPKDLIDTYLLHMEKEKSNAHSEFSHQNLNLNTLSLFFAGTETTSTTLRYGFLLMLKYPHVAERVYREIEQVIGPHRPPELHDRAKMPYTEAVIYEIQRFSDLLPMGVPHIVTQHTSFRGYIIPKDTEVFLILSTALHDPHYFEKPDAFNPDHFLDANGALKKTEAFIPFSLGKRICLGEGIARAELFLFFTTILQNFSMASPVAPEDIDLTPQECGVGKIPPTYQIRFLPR
# Text: (§4) Table S8 Inhibition of CYP isozymes by SY-1530 […]
# as §3
# CYP2C19 = CYP2C19 (Homo sapiens, UniProt P33261); format: in vitro ADME
# CYP2C19, sequence (P33261 whole entry): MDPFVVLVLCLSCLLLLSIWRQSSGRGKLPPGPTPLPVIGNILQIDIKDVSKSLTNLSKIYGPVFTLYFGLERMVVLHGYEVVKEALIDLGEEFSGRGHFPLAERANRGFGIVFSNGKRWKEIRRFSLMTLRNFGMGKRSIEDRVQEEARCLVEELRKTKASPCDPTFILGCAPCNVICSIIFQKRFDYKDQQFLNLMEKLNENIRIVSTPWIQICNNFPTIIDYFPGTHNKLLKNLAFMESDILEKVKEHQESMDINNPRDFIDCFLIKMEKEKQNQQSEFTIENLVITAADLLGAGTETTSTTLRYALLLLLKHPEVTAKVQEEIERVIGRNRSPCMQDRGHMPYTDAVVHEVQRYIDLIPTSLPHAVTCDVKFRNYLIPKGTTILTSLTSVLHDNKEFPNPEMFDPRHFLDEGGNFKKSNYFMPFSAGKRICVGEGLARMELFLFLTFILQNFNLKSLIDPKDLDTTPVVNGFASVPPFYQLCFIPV
# Text: as §4, §3
# CYP2D6 = CYP2D6 (Homo sapiens, UniProt P10635); format: in vitro ADME
# CYP2D6, sequence (P10635 whole entry): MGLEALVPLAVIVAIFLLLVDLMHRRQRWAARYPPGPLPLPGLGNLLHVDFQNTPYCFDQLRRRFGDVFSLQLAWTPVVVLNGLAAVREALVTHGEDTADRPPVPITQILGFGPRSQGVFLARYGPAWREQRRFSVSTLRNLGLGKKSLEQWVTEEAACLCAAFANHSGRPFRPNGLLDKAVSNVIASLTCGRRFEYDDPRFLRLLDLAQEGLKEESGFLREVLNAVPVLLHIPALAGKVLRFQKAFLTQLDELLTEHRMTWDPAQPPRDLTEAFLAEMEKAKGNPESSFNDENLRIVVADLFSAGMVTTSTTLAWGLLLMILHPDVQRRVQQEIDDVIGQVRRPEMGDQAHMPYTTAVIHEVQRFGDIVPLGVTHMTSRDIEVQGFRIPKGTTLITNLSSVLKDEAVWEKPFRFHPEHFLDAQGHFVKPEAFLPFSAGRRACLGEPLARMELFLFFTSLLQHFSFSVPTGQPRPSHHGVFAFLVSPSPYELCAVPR
# Text: as §4, §3
# BTK [1] = target: BTK (Homo sapiens, UniProt Q06187); assay: Competition with fluorescent probe FL-SY-1530 in DOHH2 cells (Typhoon imaging); format: cell-based; settings: 10 nM inhibitor 1 h, then 2.5 µM FL-SY-1530 1 h
# BTK (Homo sapiens, UniProt Q06187), sequence (Q06187 whole entry): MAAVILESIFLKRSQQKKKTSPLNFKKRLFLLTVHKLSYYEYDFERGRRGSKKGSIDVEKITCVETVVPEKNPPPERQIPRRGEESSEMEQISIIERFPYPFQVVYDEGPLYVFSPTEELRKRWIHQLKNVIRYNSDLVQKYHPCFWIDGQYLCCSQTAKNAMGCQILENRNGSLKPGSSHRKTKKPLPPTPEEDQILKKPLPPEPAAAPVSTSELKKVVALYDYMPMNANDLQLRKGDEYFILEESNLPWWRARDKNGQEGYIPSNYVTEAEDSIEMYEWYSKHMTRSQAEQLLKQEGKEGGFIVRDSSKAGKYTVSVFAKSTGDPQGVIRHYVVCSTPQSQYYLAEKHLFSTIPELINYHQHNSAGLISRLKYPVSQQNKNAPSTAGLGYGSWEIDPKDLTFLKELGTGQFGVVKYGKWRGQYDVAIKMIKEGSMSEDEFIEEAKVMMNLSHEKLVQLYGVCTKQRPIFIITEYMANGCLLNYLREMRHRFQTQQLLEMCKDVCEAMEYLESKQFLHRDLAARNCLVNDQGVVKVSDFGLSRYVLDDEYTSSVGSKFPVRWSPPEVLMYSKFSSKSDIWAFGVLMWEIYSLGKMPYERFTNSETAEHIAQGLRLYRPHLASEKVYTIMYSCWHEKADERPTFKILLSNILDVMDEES
# Experimental: Data are shown as the mean ± SEM. […] Data are shown as the mean ± SEM of 3 independent experiments. Statistical analysis was performed with Student’s t-test (**P < 0.01, ***P < 0.001). […] Cells were lysed and then analyzed by Western blot and fluorescent gel scanning. […] Cells were lysed and analyzed by Western blot and fluorescent gel scanning.
# human peripheral B cells = assay: CD69 up-regulation in B cells after anti-IgM stimulation; format: cell-based
# Experimental: as §2
# (§5) Figure 4 SY-1530 blocks B-cell receptor signaling and induces apoptosis. (A–D) Human B and T cells were purified and incubated with different concentrations of BTK inhibitors for 1 h. B cells were stimulated with 50 μg/mL anti-human IgM F(ab′)2, and T cells were stimulated with 50 μg/mL anti-CD3/CD28 beads overnight directly or after washout of BTK inhibitors before stimulation. The percentage of CD69 positive cells was analyzed by flow cytometry. Data are shown as the mean ± SEM (n = 3). Statistical analysis was performed with Student’s t-test (*P < 0.05, **P < 0.01, ***P < 0.001). (E) Pfeiffer cells and Romas cells were preincubated with different concentrations of compounds for 1 h, washed with PBS, and then stimulated with anti-IgM/anti-IgG (10 μg/mL) for 10 min. Cells were lysed and analyzed by Western blot with the indicated antibodies. (F) Pfeiffer cells were treated with various concentrations of SY-1530 for 24 h. The cells were stained with both PE-Annexin and 7-AAD and analyzed by flow cytometry. Data are shown as the mean ± SEM (n = 3). Statistical analysis was performed with Student’s t-test (*P < 0.05, **P < 0.01). (G) Pfeiffer cells were incubated with BTK inhibitors in the presence of z-VAD-fmk (caspase inhibitor) or DMSO for 24 h. Cells were lysed and analyzed with specific antibodies.
# human peripheral T cells = assay: CD69 up-regulation in T cells after anti-CD3/CD28 stimulation; format: cell-based
# Experimental: as §2, §5
# BTK [2] = target: T1, BTK (Mus musculus, UniProt P35991); assay: In vivo occupancy of BTK in mouse splenocytes; settings: BALB/c mice, oral 50 mg/kg, 12 h after administration
# T1 construct: from tissue; host or cells: splenocytes from spleens of normal BALB/c mice
# T1 sequence (P35991 whole entry): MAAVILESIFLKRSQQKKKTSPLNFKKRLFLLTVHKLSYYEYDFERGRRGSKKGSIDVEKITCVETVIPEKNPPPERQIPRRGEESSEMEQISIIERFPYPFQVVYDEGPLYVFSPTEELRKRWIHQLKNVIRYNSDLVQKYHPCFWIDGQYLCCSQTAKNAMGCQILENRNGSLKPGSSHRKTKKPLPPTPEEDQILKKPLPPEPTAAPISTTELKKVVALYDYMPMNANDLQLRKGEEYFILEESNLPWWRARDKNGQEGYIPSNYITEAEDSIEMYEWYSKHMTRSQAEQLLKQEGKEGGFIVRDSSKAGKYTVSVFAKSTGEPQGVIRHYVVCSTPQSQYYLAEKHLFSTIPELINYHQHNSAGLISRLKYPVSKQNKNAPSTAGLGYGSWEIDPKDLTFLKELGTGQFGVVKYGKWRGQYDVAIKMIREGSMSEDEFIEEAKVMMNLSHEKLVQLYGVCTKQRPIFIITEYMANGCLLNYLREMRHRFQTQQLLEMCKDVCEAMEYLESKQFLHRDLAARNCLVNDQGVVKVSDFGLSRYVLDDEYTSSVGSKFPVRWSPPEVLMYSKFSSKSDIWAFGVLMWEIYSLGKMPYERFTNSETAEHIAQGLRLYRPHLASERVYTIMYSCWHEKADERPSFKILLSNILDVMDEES
# Experimental: Cells were treated as indicated before the addition of a fluorescent probe (FL-SY-1530). After incubation, cells were collected and lysed for 5 min in cell lysis buffer. For analysis of the in vivo occupancy of BTK inhibitors, normal BALB/c mice (6–8 weeks old) were orally administered BTK inhibitors, […] seeded on 12-well plates and incubated with the fluorescent probe for 1 h. Then the samples were subjected to SDS-PAGE, and the gels were scanned with a Typhoon imaging system (excitation at 532 nm and emission at 555 nm). After scanning, the gels were detected with Western blot.
# Figure 3 SY-1530 binds BTK in a dose-dependent and time-dependent manner. (A) The content of SY-1530 was measured with LC-MS/MS after incubation with BTK for the indicated time periods. Data are shown as the mean ± SEM. (B) SY-1530 was incubated with different concentrations of BTK, and LC-MS/MS was then performed to detect SY-1530 content. Data are shown as the mean ± SEM of 3 independent experiments. Statistical analysis was performed with Student’s t-test (**P < 0.01, ***P < 0.001). […] Cells were lysed and then analyzed by Western blot and fluorescent gel scanning. […] The concentration of SY-1530 in the plasma was measured with LC-MS/MS. […] Cells were lysed and analyzed by Western blot and fluorescent gel scanning. The concentration of SY-1530 in the plasma was measured with LC-MS/MS.
# [3] = monkey
# PTK6, sequence (Q13882 whole entry): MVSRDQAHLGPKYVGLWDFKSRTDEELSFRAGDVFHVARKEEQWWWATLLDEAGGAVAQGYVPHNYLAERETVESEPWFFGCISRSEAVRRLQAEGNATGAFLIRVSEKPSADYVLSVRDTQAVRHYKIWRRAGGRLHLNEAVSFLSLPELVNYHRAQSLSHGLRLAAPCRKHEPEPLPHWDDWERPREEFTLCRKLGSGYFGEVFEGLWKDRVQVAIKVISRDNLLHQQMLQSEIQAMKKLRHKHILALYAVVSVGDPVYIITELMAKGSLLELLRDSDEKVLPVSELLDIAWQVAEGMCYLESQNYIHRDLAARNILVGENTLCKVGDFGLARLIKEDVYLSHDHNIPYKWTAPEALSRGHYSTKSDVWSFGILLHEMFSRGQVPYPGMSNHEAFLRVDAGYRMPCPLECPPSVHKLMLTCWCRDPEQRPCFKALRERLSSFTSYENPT
smiles,measurement,setting,value
COC/C=C/C(=O)N1CC[C@@H](n2nc(-c3ccc(Oc4ccccc4)cc3)c(C(N)=O)c2N)C1 [SY-1530],"Inhibition (%), PTK6",PTK6,92%
same,IC50,TMD8,15.6 nM
same,IC50,Pfeiffer,71.4 nM
same,IC50,B cell,1.05 nM
same,Ratio = Papp BL→AP/Papp AP→BL,"Caco-2; Caco-2, 0.1 μM",2.46
same,Ratio = Papp BL→AP/Papp AP→BL,"Caco-2; Caco-2, 1 μM",2.58
same,Ratio = Papp BL→AP/Papp AP→BL,"Caco-2; Caco-2, 10 μM",2.92
same,IC50,CYP2B6,> 25000 nM
same,IC50,CYP2C19,23800 nM
same,IC50,CYP2D6,> 25000 nM
same,Binding of FL-SY-1530 to BTK after pretreatment with inhibitor,BTK [1],scarcely bound
same,Up-regulation of CD69 in B cells after anti-IgM,"human peripheral B cells; continuous exposure, 10 nM",completely abolished
same,Up-regulation of CD69 in B cells after anti-IgM,human peripheral B cells; inhibitors washed out before BCR stimulation,blocked
same,Up-regulation of CD69 in T cells,human peripheral T cells; after washout of BTK inhibitors,not affected
same,CD69 up-regulation after T cell receptor stimulation,"human peripheral T cells; continuous exposure, 10 µM",slightly inhibited
same,BTK protein in splenocytes bound by inhibitor,BTK [2],still bound
same,Plasma protein binding (%),[3],95.3%
